Drawing on patent US11939303B2, “Sulfamate derivatives of 4-(1-phenyl-1H-[1,2,3]triazol-4-yl)-phenol, derivatives of 4-(1-phenyl-1H-[1,2,3]triazol-4-yl)-phenol, their medical use and the method of obtaining 4-(1-phenyl-1H-[1,2,3]triazol-4-yl)-phenyl sulfamate derivatives” (POLITECHNIKA GDANSKA, priority 2018, dated 2024), this text covers IC50 for 4 compounds.

pIC50: −log10 of the molar value.

The target of this test is T1, STS steroid sulfatase enzyme isolated from a human placenta (Homo sapiens, UniProt P08842).
T1 construct: human placenta was stripped from membranes and homogenized in ice-cold Tris-HCl buffer pH 7.4; from tissue; host or cells: human placenta
T1 sequence (P08842 22-583): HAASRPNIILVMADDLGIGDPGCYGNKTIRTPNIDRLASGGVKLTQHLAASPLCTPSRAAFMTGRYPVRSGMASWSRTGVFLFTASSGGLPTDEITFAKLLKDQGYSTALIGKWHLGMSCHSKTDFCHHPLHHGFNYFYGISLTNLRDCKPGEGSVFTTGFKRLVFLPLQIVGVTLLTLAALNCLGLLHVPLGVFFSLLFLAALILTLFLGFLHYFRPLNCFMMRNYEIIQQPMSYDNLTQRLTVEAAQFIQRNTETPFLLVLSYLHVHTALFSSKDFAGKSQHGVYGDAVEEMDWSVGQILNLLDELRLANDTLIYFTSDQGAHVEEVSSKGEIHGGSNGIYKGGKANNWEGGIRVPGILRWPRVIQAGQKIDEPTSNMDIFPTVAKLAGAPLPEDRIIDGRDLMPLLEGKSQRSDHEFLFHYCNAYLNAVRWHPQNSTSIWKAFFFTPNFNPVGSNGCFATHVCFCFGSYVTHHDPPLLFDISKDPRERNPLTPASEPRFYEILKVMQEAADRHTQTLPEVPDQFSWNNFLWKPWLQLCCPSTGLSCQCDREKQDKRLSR
As to the kind of experiment: STS steroid sulfatase enzymatic assay with nitrophenyl sulfate (NPS). The class given is biochemical. As to conditions: NPS substrate, pH 7.25, 60 minutes, p-nitrophenol at 405 nm, read-out: IC50 (ability to inhibit steroid sulfatase activity). As to the method: The medical and biological activity of the compounds defined the general formula 1, for use as active compounds—medicament—drugs and/or as STS steroid sulfatase inhibitors, diagnostic agent and biological use were evaluated using the STS steroid sulfatase enzyme isolated from a human placenta according to the following procedure: • human placenta was stripped from membranes and homogenized in ice-cold Tris-HCl buffer pH 7.4 containing 0.1% Triton X-100 and 0.02% NaN3. • the homogenate was alternately frozen and thawed a few times and then centrifuged at 100000 g for 60 min, • the supernatant was removed and the same procedure from homogenization to centrifugation was carried out 5 times, • finally, the enzyme was purified by three-step chromatography using columns: DEAE-cellulose, Con A-Sepharose and Bio-Gel A-1.5 and appropriate buffers. All steps were carried out at 4° C. The biological, diagnostics and medical activity of STS inhibitors, for the compounds defined by the general formula 1, were evaluated by analyzing the progress of the enzymatic reaction using nitrophenyl sulfate (NPS). The final volume of the reaction mixture was 120 μL (pH=7.25) and contained 0.8 μmol NPS, 40 μmol Tris HCl and the appropriate amount of enzyme. After 60 minutes of reaction time, 0.5 mL of 1M NaOH was added to the reaction mixture. Released p nitrophenol was determined using a spectrophotometer at 405 nm. In the final step, the IC50 parameter values (characterizing the ability of obtained compounds to inhibit steroid sulfatase activity) were determined. […] Therefore, the compounds of the general formula 1 have biological, medical and diagnostic activity, and have medical applications for use as a medicament a well as in diagnostics for use as a diagnostic agent. It has been confirmed that the new compounds with general formula 1, as one of the possible mechanisms of medical and biological action, show a strong STS inhibitory activity at low micromolar or nanomolar concentrations, which is sufficient for the compounds to act as drugs classified as steroid sulfatase inhibitors or as compounds for use as steroid sulfatase inhibitors in diagnostic tests, in vitro clinical trials and its use in biological sciences. In particular, the compounds of the general formula 1 are for use as medicaments—useful as drugs in cancer therapy and in particular in the therapy of hormone-dependent cancers of animals, in particular mammals, including humans.
With `NS(=O)(=O)Oc1ccc(-c2cn(-c3cc(C(F)(F)F)cc(C(F)(F)F)c3)nn2)cc1` [4-[1-(3,5-Bis-trifluoromethyl-phenyl)-1H-[1,2,3]triazol-4-yl]-phenyl sulfamate], the negative-log IC50 (pIC50) (commonly the IC50 on a negative log10 scale, so that one unit is a factor of ten) is 6.09.
Under `NS(=O)(=O)Oc1ccc(-c2cn(-c3cc(F)cc(F)c3)nn2)cc1` [4-[1-(3,5-difluoro-phenyl)-1H-[1,2,3]-triazol-4-yl]-phenyl sulfamate] stands 7.44.
As for `NS(=O)(=O)Oc1ccc(-c2cn(-c3cccc(C(F)(F)F)c3)nn2)cc1` [4-[1-(3-trifluoromethyl-phenyl)-1H-[1,2,3]-triazol-4-yl]-phenyl sulfamate], the pIC50 is 6.74.
In the case of `NS(=O)(=O)Oc1ccc(-c2cn(-c3ccc(OC(F)(F)F)cc3)nn2)cc1` [4-[1-(4-trifluoromethoxy-phenyl)-1H-[1,2,3]-triazol-4-yl]-phenyl sulfamate], the pIC50 is 6.62.
